One may read the LD50 as the dose expected to kill half of the subjects tested.

Results on 10 compounds are retold here after patent publication US4551472A, “Unsymmetrical bis-carbamate compounds” (priority 1984, dated 1985).

Some results are limits rather than exact numbers.

The nature of data set [1]: Mammalian Toxicity, peroral toxicity to rat. The data set is classed as in vivo. Particulars: in vivo, po, read-out: A.O. Rat LD50. Here is the method:
Certain compounds were also evaluated to determine their peroral toxicity to mammals by conventional methods. The representative animal selected for this experiment was the rat.

The test system of data set [2] is Cotton. The experiment in a line: Phytotoxicity Test, cotton. Particulars: 2500 ppm spray, ten days.
Protocol: (§1) Experiments were also conducted to determine the phytotoxicity of representative compounds with respect to healthy fresh plants. […] The test plants were sprayed in accordance with the procedure described above for the Mite Foliage Spray Test so as to deliver approximately 100 milliliters of test solution to the leaves of each plant tested. The sprayed plants and controls were set aside for approximately one hour to allow the foliage to dry and were then placed in the greenhouse. After ten days the plants were visually inspected to determine the extent of foliage injury. A rating of 1 indicates no perceptible injury; 5 indicates the plant was dead and ratings of 2, 3 and 4 indicate intermediate degrees of injury based upon the number and extent to which leaves were injured.
In data set [3] the test system is Soy. The experiment in a line: Phytotoxicity Test, soy. Particulars: 2500 ppm spray, ten days.
Data set [4] has as its system Tom. The experiment in a line: Phytotoxicity Test, tomato. The note with it: 2500 ppm spray, ten days.
Protocol: as §1
The test system of data set [5] is Corn. Kind of data set: Phytotoxicity Test, corn. Particulars: 2500 ppm spray, ten days.
Protocol: as §1
Data set [6] has as its system Bean. Kind of data set: Phytotoxicity Test, bean. Particulars: 2500 ppm spray, ten days.
Protocol: as §1
The subject of data set [7] is root-knot nematode, Meloidogyne incognita var. acrita. The experiment in a line: Nematocide Test. Further: key: 1: severe galling, equal to untreated plants; 2: moderate galling; 3: light galling; 4: very light galling; 5: no galling, perfect control. Particulars: 3.33 m.g. per jar; cucumber, approximately 3 weeks. It is filed as in vivo. Here is the method: The test organism used was the infective migratory larvae of the root-knot nematode, Meloidogyne incognita var. acrita, reared in the greenhouse on roots of cucumber plants. Infected plants were removed from the culture, and the roots are chopped very finely. A small amount of this inoculum was added to a pint jar containing approximately 180 cc. of soil. The jars were capped and incubated for one week at room temperature. During this period eggs of the nematode were hatched, and the larval forms migrated into the soil.
Ten ml. of the test formulation were added to each of the two jars for each dosage tested. Following the addition of chemical, the jars were capped, and the contents thoroughly mixed on a ball mill for 5 minutes.
The test compounds were formulated by a standard procedure of solution in acetone addition of an emulsifier, and dilution with water. Primary screening tests were conducted at 3.33 m.g. of the test compound per jar.
The jars were left capped at room temperature for a period of 48 hours, and the contents then transferred to 3 inch pots. Subsequently, the pots were seeded to cucumber as an indicator crop and placed in the greenhouse where they were cared for in the normal fashion for approximately 3 weeks.
The cucumber plants were then taken from the pots, the soil removed from the roots; and the amount of galling visually rated.
In the test for activity against nematodes (nem) activity was rated as follows: […]

On to `CSC(C)=NOC(=O)N(C)SN(C)C(=O)ON=C(SC)C(=O)N(C)C` [XI, N-[1-Methylthioacetaldehyde O-(N-methylcarbamoyl)oxime]N-[1-methylthio-N', N'-dimethylcarbamoylformaldehyde O-(N-methylcarbamoyl)oxime]sulfide], for which the LD50 in data set [1] was found to be 14.1 mg/kg. Further, the “Phytotoxicity: Cotton” value in data set [2] stood at 2. In addition, in data set [3], the “Phytotoxicity: Soy” value is given as 1. For the same compound, in data set [4], the “Phytotoxicity: Tom” value was 1. In addition, the “Phytotoxicity: Corn” value in data set [5] turned out to be 1. In data set [6], the “Phytotoxicity: Bean” value worked out at 1.
With `CSC(C)=NOC(=O)N(C)SN(C)C(=O)Oc1cccc(C(C)C)c1` [XXVIII], the LD50 in data set [1] amounted to 40 mg/kg. Further, the “Phytotoxicity: Cotton” value in data set [2] came out at 2. Moreover, in data set [3], the “Phytotoxicity: Soy” value is reported as 2. In addition, the “Phytotoxicity: Tom” value in data set [4] is reported as 1. Moreover, the “Phytotoxicity: Corn” value in data set [5] was determined as 1. In addition, the “Phytotoxicity: Bean” value in data set [6] is reported as 1.
In the case of `C#CCOC(=O)N(C)SN(C)C(=O)Oc1ccc(C)c(C)c1` [XXVII], in data set [2], the “Phytotoxicity: Cotton” value stood at 2. The “Phytotoxicity: Soy” value in data set [3] is recorded as 2. Also, in data set [4], the “Phytotoxicity: Tom” value is on record as 1. In addition, the “Biological Activity: Nem (nematode, galling rating)” value (from here on “Biological Activity: Nem”) in data set [7] amounted to 5. For the same compound, in data set [5], the “Phytotoxicity: Corn” value is 1. Besides, in data set [6], the “Phytotoxicity: Bean” value is 1.
For `C#CCOC(=O)N(C)SN(C)C(=O)Oc1cccc2ccccc12` [XXVI], the “Phytotoxicity: Cotton” value in data set [2] worked out at 1. Also, the “Phytotoxicity: Soy” value in data set [3] stood at 2. The “Phytotoxicity: Tom” value in data set [4] amounted to 1. In addition, the “Biological Activity: Nem” value in data set [7] turned out to be 4. Also, the “Phytotoxicity: Corn” value in data set [5] came to 1. Also, in data set [6], the “Phytotoxicity: Bean” value is listed as 1.
`C=CCc1ccc(OC(=O)N(C)SN(C)C(=O)ON=C(C)SC)c(OC)c1` [XXXIII]: in data set [2], the “Phytotoxicity: Cotton” value is given as 3. Besides, in data set [3], the “Phytotoxicity: Soy” value is listed as 1. The “Phytotoxicity: Tom” value in data set [4] was found to be 1. Besides, the “Biological Activity: Nem” value in data set [7] is reported as 5. Further, in data set [5], the “Phytotoxicity: Corn” value is recorded as 1. For the same compound, the “Phytotoxicity: Bean” value in data set [6] came to 1.
For `CSC(C)=NOC(=O)N(C)SN(C)C(=O)Oc1ccc(-c2ccccc2)cc1` [XXXII], the “Phytotoxicity: Cotton” value in data set [2] came out at 2. Besides, in data set [3], the “Phytotoxicity: Soy” value turned out to be 1. Also, the “Phytotoxicity: Tom” value in data set [4] is 1. Besides, the “Biological Activity: Nem” value in data set [7] came out at 4. For the same compound, in data set [5], the “Phytotoxicity: Corn” value was found to be 1. For the same compound, the “Phytotoxicity: Bean” value in data set [6] was determined as 2.
As to `CSC(C)=NOC(=O)N(C)SN(C)C(=O)Oc1ccc(Oc2ccccc2)cc1` [XXXIV], the LD50 in data set [1] was > 640 mg/kg. The “Phytotoxicity: Cotton” value in data set [2] is reported as 1. Further, in data set [3], the “Phytotoxicity: Soy” value was 1. In data set [4], the “Phytotoxicity: Tom” value is reported as 1. The “Phytotoxicity: Corn” value in data set [5] turned out to be 1. For the same compound, the “Phytotoxicity: Bean” value in data set [6] turned out to be 1.
`CSC(C)=NOC(=O)N(C)SN(C)C(=O)Oc1ccccc1OC(C)C` [XXXVIII]: the LD50 in data set [1] came to 63.5 mg/kg. Also, the “Phytotoxicity: Cotton” value in data set [2] was found to be 1. In addition, the “Phytotoxicity: Soy” value in data set [3] was 2. Further, the “Phytotoxicity: Tom” value in data set [4] came to 1. For the same compound, in data set [5], the “Phytotoxicity: Corn” value was found to be 1. The “Phytotoxicity: Bean” value in data set [6] was found to be 1.
As to `CSC(C)=NOC(=O)N(C)SN(C)C(=O)Oc1ccccc1C1OCCO1` [XXXVII], the “Phytotoxicity: Cotton” value in data set [2] was 2. Also, the “Phytotoxicity: Soy” value in data set [3] came to 2. Also, the “Phytotoxicity: Tom” value in data set [4] worked out at 1. In data set [7], the “Biological Activity: Nem” value was 4. Also, the “Phytotoxicity: Corn” value in data set [5] is reported as 1. Also, the “Phytotoxicity: Bean” value in data set [6] was found to be 2.
Take `CCCCCCCCCCCCc1ccc(OC(=O)N(C)SN(C)C(=O)ON=C(C)SC)cc1` [XXX]: the “Phytotoxicity: Cotton” value in data set [2] came out at 2. The “Phytotoxicity: Soy” value in data set [3] stood at 1. In data set [4], the “Phytotoxicity: Tom” value is reported as 1. Besides, in data set [7], the “Biological Activity: Nem” value was 4. Also, the “Phytotoxicity: Corn” value in data set [5] was 1. Moreover, in data set [6], the “Phytotoxicity: Bean” value was 1.
